Experimental data as given in patent US20250049770A1, “Phosphodiesterase 4 Inhibitor Decreases Thrombosis in Simulated ECMO Model” (Board of Regents, The University of Texas System, priority 2023, published 2025).

Experiments:
[1] = system: neutrophils and monocytes; conditions: Totani et al (J. Thromb Haemost. 2016); cited from earlier work
[2] = system: platelets, leukocytes, and extracellular vesicles (EV); experiment: High-resolution flow cytometry of pro-thrombotic proteins in roller pump ECMO circuit (Trial 1); type: cell-based, human
Text: (§1) Whole blood was collected from healthy adults under an U.S. Army Institute of Surgical Research approved standard operating procedure. A simulated neonatal roller pump with a KIDS D100 oxygenator circulated human whole blood at a low or nominal flow rate ([…] and 0.5 L/min) for six hours or until clot formation caused device failure. Samples were collected hourly from the ECMO model that received heparin alone or heparin plus roflumilast (a PDE4 inhibitor). Expression of pro-thrombotic proteins on leukocytes and extracellular vesicles (EV) were measured with high-resolution flow cytometry. Coagulation factor activity, platelet counts, time to thrombin generation, peak thrombin, and endogenous thrombin potential were quantified. Whole blood was collected from healthy adult humans into a blood transfer bag containing 0.5 U/mL of heparin with or without roflumilast at 0.01 microgram per mL, under an approved protocol by the U.S. Army Institute of Surgical Research. The blood was then circulated through a roller pump circuit for six hours or until clot formation occurred that prevented forward flow through the circuit. As a control, an aliquot of static blood was removed after priming the circuit and maintained in a similar test environment without circuitry. Samples were collected hourly from the roller pump circuit, which circulated blood treated with either heparin only or heparin plus roflumilast, at nominal flow rates (0.5 L/min). The expression of pro-thrombotic phospholipids and proteins on platelets, leukocytes, and extracellular vesicles (EV) was measured using high-resolution flow cytometry. Additionally, thromboelastography (TEG) and coagulation indices were used to assess coagulopathy, and a calibrated automated thrombogram was employed to measure differences in whole blood TEG between the roflumilast-treated and heparin-only samples.

thrombin generation = experiment: Thrombin generation (calibrated automated thrombogram) in roller pump ECMO circuit (Trial 1); parameters: species or system human; conditions: for time to thrombin generation: at the 3-hour time point, p<0.04; for time to thrombin generation / peak thrombin generation: heparin with or without roflumilast; for peak thrombin generation: p<0.02
Text: (§2) Whole blood was collected from healthy adults under an U.S. Army Institute of Surgical Research approved standard operating procedure. A simulated neonatal roller pump with a KIDS D100 oxygenator circulated human whole blood at a low or nominal flow rate ([…] and 0.5 L/min) for six hours or until clot formation caused device failure. Samples were collected hourly from the ECMO model that received heparin alone or heparin plus roflumilast (a PDE4 inhibitor). Expression of pro-thrombotic proteins on leukocytes and extracellular vesicles (EV) were measured with high-resolution flow cytometry. Coagulation factor activity, platelet counts, time to thrombin generation, peak thrombin, and endogenous thrombin potential were quantified.
(§3) Whole blood was collected from healthy adult humans into a blood transfer bag containing 0.5 U/mL of heparin with or without roflumilast at 0.01 microgram per mL, under an approved protocol by the U.S. Army Institute of Surgical Research. The blood was then circulated through a roller pump circuit for six hours or until clot formation occurred that prevented forward flow through the circuit. As a control, an aliquot of static blood was removed after priming the circuit and maintained in a similar test environment without circuitry.
(§4) Samples were collected hourly from the roller pump circuit, which circulated blood treated with either heparin only or heparin plus roflumilast, at nominal flow rates (0.5 L/min). The expression of pro-thrombotic phospholipids and proteins on platelets, leukocytes, and extracellular vesicles (EV) was measured using high-resolution flow cytometry. Additionally, thromboelastography (TEG) and coagulation indices were used to assess coagulopathy, and a calibrated automated thrombogram was employed to measure differences in whole blood TEG between the roflumilast-treated and heparin-only samples.

human whole blood [3] = experiment: Thromboinflammation markers in simulated Cardiohelp HTS in vitro ECMO system (Trial 2); type: cell-based; conditions: roflumilast added to heparin vs heparin alone; preliminary results
Text: (§5) Whole blood was collected from healthy adults under an US Army Institution of Surgeryal Review Board approved protocol. A simulated Cardiohelp HTS in vitro ECMO system with a double-lumen veno-venous catheter circulated human whole blood at a low flow rate (1 L/min) for six hours or until clot formation caused device failure. Samples were collected hourly from the ECMO model that received heparin alone or heparin plus roflumilast (a PDE4 inhibitor). Expression of pro-thrombotic proteins on leukocytes and extracellular vesicles (EV) were measured with high-resolution flow cytometry. Coagulation factor activity, platelet counts, time to thrombin generation, peak thrombin, and endogenous thrombin potential were quantified.

human whole blood [4] = experiment: Circuit patency / clot formation in simulated neonatal roller pump ECMO circuit (Trial 1); conditions: for circuits with sustained patency after six hours: heparin 0.5 U/mL with or without roflumilast, 3/4 vs 2/7 circuits
Text: as §2, §3, §4

human whole blood [5] = experiment: Clot formation (d-dimer) and plasminogen activating inhibitor in simulated Cardiohelp HTS in vitro ECMO system (Trial 2); conditions: after five hours of circulation, low flow rate (1 L/min); for clot formation as measured by d-dimer: heparin with or without roflumilast, p<0.04
Text: as §5

leukocytes = experiment: Leukocyte activation measured by TNF-alpha in roller pump ECMO circuit (Trial 1); type: cell-based, human; conditions: nominal flow rate (0.5 L/min), six hours; heparin with Roflumilast
Text: as §1, with “circuitry.” for “circuitry. Samples were collected hourly from the roller pump circuit, which circulated blood treated with either heparin only or heparin plus roflumilast, at nominal flow rates (0.5 L/min). The expression of pro-thrombotic phospholipids and proteins on platelets, leukocytes, and extracellular vesicles (EV) was measured using high-resolution flow cytometry. Additionally, thromboelastography (TEG) and coagulation indices were used to assess coagulopathy, and a calibrated automated thrombogram was employed to measure differences in whole blood TEG between the roflumilast-treated and heparin-only samples.”

monocyte = conditions: cell culture experiments; cited from earlier work
[6] = in vitro ECMO experiments with roflumilast

Compound | pro-thrombotic functions of neutrophils and monocytes [1] | Monocytes expression of tissue factor ([2]; low flow (0.3 L/min) vs low flow with Roflumilast, p<0.05) | P-selection expression ([2]; low flow (0.3 L/min) with Roflumilast vs nominal and low flow, over six hours, p<0.05) | extracellular leukocytes expressing tissue factor ([2]; roller pump circuit, heparin plus roflumilast) | time to thrombin generation (thrombin generation) | peak thrombin generation (thrombin generation) | thrombin generation (in vitro ECMO experiments, summary) (thrombin generation; [6]) | Peak thrombin (comparison in words) (thrombin generation; nominal flow rate (0.5 L/min), six hours, heparin only vs leukodepleted or roflumilast and heparin, p<0.05) | lag time (thrombin generation) (thrombin generation; over six hours of circulation, heparin vs heparin with Roflumilast) | monocyte activation (thromboinflammation) (human whole blood [3]) | myeloperoxidase (thromboinflammation) (human whole blood [3]) | p-selectin (thromboinflammation) (human whole blood [3]) | circuits with sustained patency after six hours (human whole blood [4]) | clot formation (in vitro ECMO experiments, summary) (human whole blood [4]; [6]) | clot formation as measured by d-dimer (human whole blood [5]) | increase in plasminogen activating inhibitor levels, more than heparin alone (human whole blood [5]; roflumilast added to heparin, p<0.03) | leukocyte activation as measured by TNF-alpha (leukocytes) | monocyte activation of tissue factor (monocyte)
O=C(Nc1c(Cl)cncc1Cl)c1ccc(OC(F)F)c(OCC2CC2)c1 [roflumilast] | prevents | increased more at low flow than circuits treated with | significantly inhibited | decreased | 13.9 min | 69 nm | decreased | increased significantly more in heparin only | decreased lag time over six hours of circulation less than roflumilast treated circuits | less | less | less | 75% | decreased | 0.30 ± 0.06 µg/mL | 1.6 fold | inhibited leukocyte activation | decreases
heparin | – | – | – | – | 6.8 min | 207 nm | – | – | – | – | – | – | 28% | – | 0.49 ± 0.08 µg/mL | – | – | –
